Results as given in paper PMC11190223, “Identification of sulfakinin receptor regulating feeding behavior and hemolymph trehalose homeostasis in the silkworm, Bombyx mori” (Scientific Reports, 2024).
Where no end group is shown, it is not given here. [ ]: non-standard residue; d: D form. sY = N[C@@H](Cc1ccc(OS(=O)(=O)O)cc1)C(=O)O

Experiments:
BNGR-A9 [1] = assay: Fura-2 AM-based Ca^2+ mobilization assay, BNGR-A9; type: cell-based, Bombyx mori
Text: The entire coding region of BNGR-A9 (NM_001134272.1) was obtained by PCR and subsequently cloned into pEGFP-N1 and pCMV-Flag vectors using the primers listed in Table S1. The Flag-BNGR-A9 construct was generated for functional assays, including CRE-luciferase, calcium mobilization, and ERK phosphorylation assays, while BNGR-A9-EGFP was created for receptor visualization purposes. Additionally, for expression in the BmN cell system, the BNGR-A9 gene was inserted into the pIZT/V5-His vector. All constructs were validated by DNA sequencing.
HEK293 cells were cultured with Dulbecco’s Modified Eagle’s Medium (Gibco, NY, USA) supplied with 10% Fetal bovine serum (Gibco, NY, USA) in a 37 °C humidified incubator containing 5% CO2. BmN cells were maintained in TC 100 insect medium (AppliChem, Darmstadt, Germany) supplied with 10% Fetal bovine serum in a 28 °C incubator. Both HEK293 and BmN cells were transfected with X-tremeGENE (Roche, Mannheim, Germany) according to the manufacturer’s instruction.
To monitor the changes of intracellular calcium, Fura-2 AM (Dojindo, Kumamoto, Japan) was utilized as the calcium indicator, following the methodology outlined in a previous study. Briefly, HEK293 cells stably expressing Flag-BNGR-A9 were exposed to various concentrations of Bombyx mori neuropeptides and measured using a fluorescence spectrometer (Tecan Infinite 200 PRO). Calcium levels were determined by the ratio of fluorescence excitation at 340 nm to that at 380 nm. If necessary, cells were pre-treated with U73122, FR900359, or KT5720 for 30 min prior to the initiation of the experiment. For assays involving BmN cells expressing pIZT-BNGR-A9, the procedures were conducted at 28 °C, and HBSS was replaced with HBM (Hepes-Buffered Medium: 140 mM NaCl, 5 mM KCl, 1 mM MgCl2, 1.2 mM Na2HPO4, 5 mM NaHCO3, 10 mM glucose, and 20 mM HEPES–NaOH, CaCl2 (1 mM), pH 6.2).
Data analysis was conducted using GraphPad Prism (San Diego, CA), with results presented as mean ± SEM. Statistical significance was assessed through Student’s t-test or two-way ANOVA with multiple comparisons, with p values below 0.05 denoted as significant (*p < 0.05, **p < 0.01, ***p < 0.001). Dose–response curves were generated via non-linear curve fitting. Adobe Photoshop was used to process images, ensuring uniform brightness and contrast settings across all conditions. All images and data provided represent findings from a minimum of three independent experiments.

[2] = Feeding behavior assay: larval body weight; type: in vivo, Bombyx mori; conditions: injected daily, final concentration 10 nM, 5th instar larvae, days 2 and 4 post-injection vs control (HBM)
Description: (§1) Synchronized larvae of the first day of 5th instar were chosen for feeding behavior assay. Silkworms were starved for 12 h to standardize the starting level. To knock down bngr-a9, 5 μg dsRNA/BNGR-A9 or dsRNA/EGFP was injected into the abdomen of the larvae at the indicated time using a 10 μl microsyringe. For silkworms, both treated and untreated with dsRNA, synthetic SK peptide (at a final concentration of 10 nM) was injected daily starting from the second day of the fifth instar. For each trial, twenty synchronized P50 larvae were used. After injection, the silkworm larvae were fed with enough mulberry leaves three times a day and maintained under standard conditions. Larval body weights and food consumption were measured every other day until pupation.

[3] = Hemolymph trehalose determination; type: in vivo, Bombyx mori
Description: Silkworm larvae were anesthetized by cooling on ice, after which hemolymph was collected using a micropipette from an incision made at the abdominal leg. Approximately 5 mg of phenylthiourea (to achieve a final concentration of 2.5% w/v) was added to the hemolymph in a 1.5 ml Eppendorf tube to inhibit clotting. Hemolymph samples from 10 insects were then centrifuged at 12,000 rpm for 10 min at 4 °C to sediment any particulates. For trehalose measurement, the hemolymph underwent pretreatment with trehalase (Megazyme, Chicago, US), following the manufacturer’s protocol. Subsequently, the sugar concentration in the hemolymph was assessed using a glucose oxidase–peroxidase kit (Shanghai Rongsheng Biotech, China).

BNGR-A9 [4] = assay: cAMP ELISA in BNGR-A9-expressing HEK293 cells; type: cell-based, Bombyx mori; conditions: 1 μM, 15 min, IBMX pretreatment (300 μM, 1 h)
Description: 1. Measurement of cAMP accumulation
Cells were seeded in 24-well plates and incubated overnight. Prior to treatment, cells
were pre-treated with the phosphodiesterase inhibitor IBMX (300 μM) for 1 hour.
Subsequently, cells were treated with different Bombyx neuropeptides for 15 minutes.
The reaction was terminated by removing the medium, followed by the addition of
ice-cold PBS and a single wash. Cell lysis was performed, and cAMP formation was
assessed using a competitive binding technique based on an enzyme-linked
immunosorbent assay (ELISA) (Parameter cAMP assay, R&D, Minneapolis, USA)
following the manufacturer's instructions. The results were expressed as the fold
change in cAMP concentration compared to the control concentration in the
2. Determination of Glucose of hemolymph
Silkworm larvae were anesthetized by cooling on ice, after which hemolymph was
collected using a micropipette from an incision made at the abdominal leg.
Approximately 5 mg of phenylthiourea (to achieve a final concentration of 2.5% w/v)
was added to the hemolymph in a 1.5 ml Eppendorf tube to inhibit clotting.
Hemolymph samples from 10 insects were then centrifuged at 12,000 rpm for 10
minutes at 4 °C to sediment any particulates. The glucose concentration in the
hemolymph was determined using a glucose oxidase-peroxidase kit (Shanghai […]
by stimulation with 1μM BmnsSK or BmsSK for 15 min, and the cAMP level was determined […]

[5] = Feeding behavior assay: food consumption; type: in vivo, Bombyx mori; conditions: injected daily, final concentration 10 nM, 5th instar larvae; days 2 and 4 post-injection vs control (HBM)
Description: Double-stranded RNAs were synthesized using MEGAscript RNAi T7 Kit (Ambion, CA, USA) following the manufacturer’s instructions. Templates for in vitro transcription were generated by PCR using the primers containing the T7 polymerase promoter sequence at their 5′ ends, as listed in Table S1. For each 20-μl reaction, 1 μg PCR product was added as the template. Following transcription, the reaction mixture was purified by phenol/chloroform extraction and ethanol precipitation. The resulting dsRNA products were diluted with nuclease-free water to achieve the desired concentration (final volume of 2–5 μl).
as §1

In the case of “BmsSK: Bombyx mori sulfated-sulfakinin, synthetic; sulfated version of GDDTFDD^8YGHLRF-NH2 (GDDTFDD[sY]GHLRF-NH2; N-terminus assumed; SMILES CC(C)C[C@H](NC(=O)[C@H](Cc1c[nH]cn1)NC(=O)CNC(=O)[C@H](Cc1ccc(OS(=O)(=O)O)cc1)NC(=O)[C@H](CC(=O)O)NC(=O)[C@H](CC(=O)O)NC(=O)[C@H](Cc1ccccc1)NC(=O)[C@@H](NC(=O)[C@H](CC(=O)O)NC(=O)[C@H](CC(=O)O)NC(=O)CN)[C@@H](C)O)C(=O)N[C@@H](CCCNC(=N)N)C(=O)N[C@@H](Cc1ccccc1)C(N)=O)”, the “Ca^2+ response” value (BNGR-A9 [1]; 1 μM peptide, Fura-2 AM, BNGR-A9-expressing HEK293 and BmN cells, three independent experiments) is reported as “triggered responses in BNGR-A9-expressing cells”, the “Ca^2+ response compared to BmnsSK” value (BNGR-A9 [1]; BNGR-A9-expressing HEK293 and BmN cells, Fura-2 AM) is reported as “significantly greater Ca^2+ response” and the EC50 (BNGR-A9 [1]; BmN cells expressing BNGR-A9, Fura-2 AM, 28 °C, HBM pH 6.2, three independent experiments) is reported as 51.4 nM. For the same substance, the EC50 (BNGR-A9 [1]; HEK293 cells expressing BNGR-A9, Fura-2 AM, three independent experiments) was 29 nM, the Body weight [2] was “weight loss” and the Body weight ([2]; listed as synthetic sulfated- SK) was “notably declined”. For the same substance, the Hemolymph trehalose level ([3]; BmsSK final 10 nM, 24 h after EGFP dsRNA injection, hemolymph collected 24 h later) was “significant increase in trehalose levels”, the Hemolymph trehalose level ([3]; following BmsSK injection (restated in discussion)) was “significant rise in circulating hemolymph trehalose” and the “Intracellular cAMP level” value (BNGR-A9 [4]) was “remained unchanged”. The Food consumption [5] was “notably declined”.
